Reference: patent US9926275B2 (priority 2013, dated 2018)
Like-named read-outs stand apart in the source and are kept apart here.

Tests used:
CB1 receptor [1] = target: T1, CB1 receptor (Homo sapiens, UniProt P21554); assay: DiscoveRx HitHunter cAMP XS+ assay in cAMP Hunter cell line, allosteric modulation of CP55,940 response; type: cell-based; details: for Emax: read-out: cAMP activity ECMax (%)
Description: Once it was established that the cells were healthy and growing normally, cells were passaged from flasks using cell dissociation reagent buffer and seeded into white walled clear bottom 384-well microplates for compound profiling. For profiling, cells were seeded at a density of 10000 cells per well in a total volume of 20 μL and were allowed to adhere and recover overnight prior to compound addition. Cells were treated the following day using the protocols shown below. cAMP modulation was determined using the DiscoveRx HitHunter cAMP XS+ assay.
Media was aspirated from cells and replaced with 10 μL 1:1 HBSS/Hepes: cAMP XS+ Ab reagent. Agonist (CP55,940) dose curves were performed to determine the EC20 value for the testing with the compounds of the present technology. 5 μL of 4× agonist was added to each well with an equal concentration of vehicle present. EC20 agonist concentration was determined directly from agonist dose curve.
(§1) For allosteric determination, cells were preincubated with compound followed by agonist challenge at the EC20 concentration of the agonist. 5 μL of 4× compound was added to cells and incubated at 37° C. for 30 minutes. 5 μL of 4× EC20 agonist was added to cells and incubated at 37° C. for 30 minutes.
Signal Detection: After appropriate compound incubation, assay signal was generated through incubation with 20 μL cAMP XS+ED/CL lysis cocktail for one hour followed by incubation with 20 μL cAMP XS+EA reagent for three hours at room temperature. Microplates were read following signal generation with a PerkinElmer Envision™ instrument for chemiluminescent signal detection.
(§2) Data Analysis: Dose curves were plotted using GraphPad Prism or Activity Base. The percentage activity is calculated using the following formula: % Activity=100%×(1−(mean RLU of test sample−mean RLU of MAX control)/(mean RLU of vehicle control [EC20 for PAM]−mean RLU of MAXcontrol).
(§3) Agonist (CP55,940) dose curves were performed for the CNR1 PathHunter and cAMP Hunter cell lines. […] The cAMP assay was performed in the presence of 20 μM forskolin (EC80).
(§4) In Vitro Evaluation: The in vitro evaluation of the covalent allosteric modulators was performed using as described previously.

CB1 receptor [2] = target: T1, CB1 receptor; assay: β-arrestin recruitment in CNR1 PathHunter cell line, allosteric modulation of CP55,940 response; type: cell-based; details: for Emax: read-out: β-arrestin activity EMax (%)
Description: as §1, §2, §3, §4

[3] = Table 1, preincubation with compound, then CP55,940 challenge, 20 μM forskolin
[4] = Table 1, CP55,940 as agonist, read-out: β-arrestin EC50
[5] = Table 1, preincubation with compound, then CP55,940 challenge, 20 μM forskolin, read-out: cAMP EC50
[6] = Table 2, covalent allosteric modulators, read-out: cAMP activity EC50 (nm)
[7] = Table 2, covalent allosteric modulators
[8] = Table 2, covalent allosteric modulators, read-out: β-arrestin activity EC50 (nm)

T1 sequence (P21554 whole entry): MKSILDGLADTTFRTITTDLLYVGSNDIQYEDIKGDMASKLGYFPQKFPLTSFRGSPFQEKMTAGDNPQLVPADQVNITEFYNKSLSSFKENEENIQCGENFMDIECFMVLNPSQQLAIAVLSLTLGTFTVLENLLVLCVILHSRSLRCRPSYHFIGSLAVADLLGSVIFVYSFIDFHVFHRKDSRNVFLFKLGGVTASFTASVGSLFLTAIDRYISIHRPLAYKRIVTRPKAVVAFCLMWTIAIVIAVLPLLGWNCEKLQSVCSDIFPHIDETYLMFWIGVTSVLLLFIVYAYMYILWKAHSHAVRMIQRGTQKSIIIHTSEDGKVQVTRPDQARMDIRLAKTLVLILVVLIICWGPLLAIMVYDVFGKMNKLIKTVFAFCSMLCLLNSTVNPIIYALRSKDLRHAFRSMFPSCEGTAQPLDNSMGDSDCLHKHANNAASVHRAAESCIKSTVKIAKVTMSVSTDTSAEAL

| SMILES | cAMP % inhibition (CB1 receptor [1]; [3]) | β-arrestin % inhibition (CB1 receptor [2]; Table 1, CP55,940 as agonist) | EC50 (CB1 receptor [2]; [4]) | EC50 (CB1 receptor [1]; [5]) | other results |
| --- | --- | --- | --- | --- | --- |
| O=C(Nc1cccc(-c2cccc(N3CCCC3)n2)c1)N1CCc2ccccc2C1 [Compound 10y, N-(3-(6-(Pyrrolidin-1-yl)pyridin-2-yl)phenyl)-3,4-dihydroisoquinoline-2(1H)-carboxamide] | 2.55% | 50% | 5340 nM |  | EC50 (CB1 receptor [1]; read-out: cAMP EC50): > 10000 nM |
| O=C(Nc1cccc(-c2cccc(N3CCCC3)n2)c1)Nc1ccccc1F [Compound 10u, 1-(2-Fluorophenyl)-3-(3-(6-(pyrrolidin-1-yl)pyridin-2-yl)phenyl)urea] | 79% | 107% | 99 nM | 330 nM |  |
| O=C(Nc1cccc(-c2cccc(N3CCCC3)n2)c1)Nc1ccccc1CO [Compound 17, 1-(2-(Hydroxymethyl)phenyl)-3-(3-(6-(pyrrolidin-1-yl)pyridin-2-yl)phenyl)urea] | 33% | 106% | 672 nM | 1140 nM |  |
| O=C(Nc1ccc(Cl)cc1)Nc1cccc(-c2cccc(N3CCCC3)n2)c1 [Compound 10a, 1-(4-Chlorophenyl)-3-(3-(6-(pyrrolidin-1-yl)pyridin-2-yl)phenyl)urea] |  |  |  |  | cAMP % inhibition (CB1 receptor [1]): 108%; β-arrestin % inhibition (CB1 receptor [2]): 109% |
| [N-]=[N+]=Nc1ccc(NC(=O)Nc2cccc(-c3cccc(N4CCCC4)n3)c2)cc1 [GAT331] |  |  |  |  | EC50 (CB1 receptor [1]; [6]): 297 nM; Emax (CB1 receptor [1]; [7]): 128%; EC50 (CB1 receptor [2]; [8]): 106 nM; Emax (CB1 receptor [2]; [7]): 138% |
| O=C(Nc1cccc(-c2cccc(N3CCCC3)n2)c1)Nc1ccc(Cl)cc1CCCCOC1CCCCO1 (centres unmarked) [Compound 23a, 1-(4-Chloro-2-(4-((tetrahydro-2H-pyran-2-yl)oxy)butyl)phenyl)-3-(3-(6-(pyrrolidin-1-yl)pyridin-2-yl)phenyl)urea] | 41% | 117% | 1090 nM | 820 nM |  |
| O=C(Nc1cccc(-c2cccc(N3CCCC3)n2)c1)Nc1cccc(C(F)(F)F)c1 [Compound 10f, 1-(3-(6-(Pyrrolidin-1-yl)pyridin-2-yl)phenyl)-3-(3-(trifluoromethyl)phenyl)urea] | 116% | 129% | 220 nM | 242 nM |  |
| CC(C)c1ccccc1NC(=O)Nc1cccc(-c2cccc(N3CCCC3)n2)c1 [Compound 10v, 1-(2-Isopropylphenyl)-3-(3-(6-(pyrrolidin-1-yl)pyridin-2-yl)phenyl)urea] |  |  |  |  | cAMP % inhibition (CB1 receptor [1]): 70%; EC50 (CB1 receptor [1]; cAMP EC50 nM): 4810 nM; β-arrestin % inhibition (CB1 receptor [2]): 66%; EC50 (CB1 receptor [2]; β-arrestin EC50 nM): 4200 nM |
| O=C(Nc1ccc(Cl)cc1)Nc1cccc(-c2ccnc(N3CCCC3)c2)c1 [Compound 57, 1-(4-Chlorophenyl)-3-(3-(2-(pyrrolidin-1-yl)pyridin-4-yl)phenyl)urea] | 50% | 111% | 77 nM | 9790 nM |  |
| O=C(Nc1ccc(C(=O)c2ccccc2)cc1)Nc1cccc(-c2cccc(N3CCCC3)n2)c1 [GAT300] |  |  |  |  | EC50 (CB1 receptor [1]; [6]): 169 nM; Emax (CB1 receptor [1]; [7]): 99.6%; EC50 (CB1 receptor [2]; [8]): 28.4 nM; Emax (CB1 receptor [2]; [7]): 106% |
| O=C(Nc1ccc(N=C=S)cc1)Nc1cccc(-c2cccc(N3CCCC3)n2)c1 [GAT332] |  |  |  |  | EC50 (CB1 receptor [1]; [6]): 119 nM; Emax (CB1 receptor [1]): 78.9%; EC50 (CB1 receptor [2]; [8]): 24 nM; Emax (CB1 receptor [2]): 106% |
| O=C(Nc1ccc(C(F)(F)F)cc1)Nc1cccc(-c2cccc(N3CCCC3)n2)c1 [Compound 10e, 1-(3-(6-(Pyrrolidin-1-yl)pyridin-2-yl)phenyl)-3-(4-(trifluoromethyl)phenyl)urea] | 161% | 128% | 51 nM | 218 nM |  |
| COC(=O)c1ccccc1NC(=O)Nc1cccc(-c2cccc(N3CCCC3)n2)c1 [Compound 15, Methyl 2-(3-(3-(6-(pyrrolidin-1-yl)pyridin-2-yl)phenyl)ureido)benzoate] | 0.6% | 24% | 8520 nM | > 10000 nM |  |
| O=C(NCCc1ccc(N2CCCCC2)cc1)c1[nH]c2ccc(Cl)cc2c1CCN=C=S [GAT209] |  |  |  |  | EC50 (CB1 receptor [1]; [6]): > 10000 nM; Emax (CB1 receptor [1]): 0%; EC50 (CB1 receptor [2]; [8]): 225 nM; Emax (CB1 receptor [2]): 104% |
| CCc1ccccc1NC(=O)Nc1cccc(-c2cccc(N3CCCC3)n2)c1 [Compound 10r, 1-(2-Ethylphenyl)-3-(3-(6-(pyrrolidin-1-yl)pyridin-2-yl)phenyl)urea] | 42% | 76% | 3320 nM | 1190 ± 120 nM |  |
| O=C(Nc1ccc(Cl)cc1)Nc1cccc(-c2ccc(N3CCCC3)nc2)c1 [Compound 61, 1-(4-Chlorophenyl)-3-(3-(6-(pyrrolidin-1-yl)pyridin-3-yl)phenyl)urea] | 6% | 105% | 880 nM | > 10000 nM |  |
| Clc1ccc(Nc2nnc(-c3cccc(-c4cccc(N5CCCC5)n4)c3)o2)cc1 [Compound 42, N-(4-Chlorophenyl)-5-(3-(6-(pyrrolidin-1-yl)pyridin-2-yl)phenyl)-1,3,4-oxadiazol-2-amine] | 43% | 31% | 5850 nM | > 10000 nM |  |
| O=C(Nc1cccc(-c2cccc(N3CCCC3)n2)c1)Nc1cccc2ccccc12 [Compound 10w, 1-(Naphthalen-1-yl)-3-(3-(6-(pyrrolidin-1-yl)pyridin-2-yl)phenyl)urea] | 69% | 109% | 1270 nM | 1260 ± 125 nM |  |
| O=C(Nc1ccc(Cl)cc1)Nc1cccc(-c2cccc(N3CCCC3)c2)c1 [Compound 64] | 84% | 110% | 27 nM | 679 nM |  |
| CN(C(=O)Nc1ccc(Cl)cc1)c1cccc(-c2cccc(N3CCCC3)n2)c1 [Compound 27, 3-(4-Chlorophenyl)-1-methyl-1-(3-(6-(pyrrolidin-1-yl)pyridin-2-yl)phenyl)urea] | 31% | 109% | 384 nM | 527 nM |  |
| Cc1ccccc1NC(=O)Nc1cccc(-c2cccc(N3CCCC3)n2)c1 [Compound 10p, 1-(3-(6-(Pyrrolidin-1-yl)pyridin-2-yl)phenyl)-3-(o-tolyl)urea] | 97% | 104% | 361 nM | 1700 nM |  |
| O=C(Nc1ccc(I)cc1)Nc1cccc(-c2cccc(N3CCCC3)n2)c1 [Compound 10b, 1-(4-Iodophenyl)-3-(3-(6-(pyrrolidin-1-yl)pyridin-2-yl)phenyl)urea] | 126% | 133% | 27 nM | 223 nM |  |
| O=C(Nc1ccc(Cl)cc1)Nc1cccc(-c2cccc(N3CCNCC3)n2)c1 [Compound 67b, 1-(4-Chlorophenyl)-3-(3-(6-(piperazin-1-yl)pyridin-2-yl)phenyl)urea] | 113% | 110% | 25 nM | 274 nM |  |
| CCc1c(C(=O)NCCc2ccc(N3CCCCC3)cc2)[nH]c2ccc(N=C=S)cc12 [GAT100] |  |  |  |  | EC50 (CB1 receptor [1]; [6]): 186 nM; Emax (CB1 receptor [1]): 89.4%; EC50 (CB1 receptor [2]; [8]): 9.06 nM; Emax (CB1 receptor [2]): 106% |
| O=C(Nc1cccc(-c2cccc(N3CCCC3)n2)c1)Nc1ccc(Cl)cc1CCCCO [Compound 24a, 1-(4-Chloro-2-(4-hydroxybutyl)phenyl)-3-(3-(6-(pyrrolidin-1-yl)pyridin-2-yl)phenyl)urea] | 82% | 126% | 276 nM | 1230 nM |  |
| Cc1cccc(NC(=O)Nc2cccc(-c3cccc(N4CCCC4)n3)c2)c1 [Compound 10o, 1-(3-(6-(Pyrrolidin-1-yl)pyridin-2-yl)phenyl)-3-(m-tolyl)urea] | 65% | 125% | 734 nM | 483 nM |  |
| O=C(Nc1cccc(Cl)c1)Nc1cccc(-c2cccc(N3CCCC3)n2)c1 [Compound 10c, 1-(3-Chlorophenyl)-3-(3-(6-(pyrrolidin-1-yl)pyridin-2-yl)phenyl)urea] | 111% | 128% | 260 nM | 782 nM |  |
| COc1cccc(NC(=O)Nc2cccc(-c3cccc(N4CCCC4)n3)c2)c1 [Compound 10i, 1-(3-Methoxyphenyl)-3-(3-(6-(pyrrolidin-1-yl)pyridin-2-yl)phenyl)urea] | 92% | 109% | 497 nM | 1790 nM |  |
